Results: EP3355943B1, “METHODS AND SYSTEMS FOR TREATING MEDICAL DEVICES AND FLUIDS” (Ethicon, Inc., priority 2015, dated 2017)
Several values for one entry are separate records, joined by “and”; a condition that tells them apart may be missing. Equal values may be shown once.

Experiments:
[1] = Effect of storage (dwell time) on efficacy of pre-mixed CaSt suspensions, sonicated or vortexed; assay type: biochemical
Method: Efficacy of pre-mixed CaSt suspensions (sonicated and vortexed) was tested, comparing efficacy of immediately prepared suspensions with suspensions having shelf life or dwell time of 90 min, 5 days, and 1 month prior to contact with endotoxin containing solutions.
10 mL SRW was then introduced to the sonicated CaSt mixture. It was then vortexed for 5 seconds to fully incorporate the sonicated CaSt. The mixture was then tested after 15 minutes of interaction to measure the percent decrease of endotoxin.
10 mL SRW was then introduced to the vortexed CaSt mixture. It was then vortexed for 5 seconds to fully incorporate the sonicated CaSt. The mixture was then tested after 15 minutes of interaction to measure the percent decrease of endotoxin.
These mixtures were then tested on the Charles River MCS at a dilution of 1:2000 after 15 minutes of interaction.
Testing of suspensions having shelf life or dwell time of 90 min, 5 days, and 1 month prior to contact with endotoxin containing solutions.
Test samples were prepared as described above, sonicated and vortexed, but were subjected to shelf life or dwell time of 90 min, 5 days, and 1 month prior to contact with endotoxin containing solution (SRW). After dwell time exposure, similarly to the immediate mixing test above, 10 mL SRW was then introduced to the sonicated or vortexed CaSt mixture. It was then vortexed for 5 seconds to fully incorporate the sonicated CaSt. The mixture was then tested after 15 minutes of interaction to measure the percent decrease of endotoxin. These mixtures were then tested on the Charles River MCS at a dilution of 1:2000 after 15 minutes of interaction.
*The 1 month shelf life sample was only tested at 0.04g CaSt and measured the percent removal after 15 minutes of interaction as well as 30 minutes after interaction.

[2] = Suture testing in ethyl acetate containing CaSt: detection of LPS on suture; assay type: biochemical; conditions: LPS-contaminated suture submerged in Ethyl Acetate w/ 5% Calcium Stearate, vortexed 10 seconds
Method: An absorbable VICRYL® (Polyglactin 910) suture (Size 1, Length: 27in) made of a copolymer made from 90% glycolide and 10% L-lactide was exposed to a solution containing LPS (endotoxin) (9 Strands of Vicryl suture were immersed in tubing with endotoxin solution (SRW, Concentration: 3980 EU/mL) for 10 minutes at a time at ambient temperature. The sutures were air dried for 20 minutes in a vented chemical hood and then placed in round bottom and dried The suture was then immersed into Ethyl Acetate (EtAc) containing CaSt, vortexed briefly for 10 seconds, dried for 20 minutes in a vented chemical hood, and extracted in endotoxin free water at ambient temperature. The suture extracted in endotoxin free water (LRW) was then tested for LPS using the Kinetic Chromogenic Method for Endotoxin Quantitation, Charles River Laboratories, Charleston S.C.

[3] = 0.02 g CaSt, Sonicated, 5 Day dwell time

Compound: CCCCCCCCCCCCCCCCCC(=O)O [Calcium Stearate]
- Average Percent Change [1, 3]: 76%
- Percent Endotoxin Removed [1, 3]: 76%
- EU After ([1]; 0.02 g CaSt, Sonicated, 5 Day dwell time, 15 minutes, EU Before 37,800): 9,200 EU
- Average Percent Change ([1]; 0.02 g CaSt, Sonicated, 90 min dwell time): 61%
- EU After ([1]; 0.02 g CaSt, Sonicated, 90 min dwell time, 15 minutes, EU Before 36,100, listed as Aged Sonicated CaSt #1): 15120 EU
- EU After ([1]; 0.02 g CaSt, Sonicated, 90 min dwell time, 15 minutes, EU Before 36,100, listed as Aged Sonicated CaSt #2): 12,960 EU
- Percent Endotoxin Removed ([1]; 0.02 g CaSt, Sonicated, 90 min dwell time, listed as Aged Sonicated CaSt #1): 58%
- Percent Endotoxin Removed ([1]; 0.02 g CaSt, Sonicated, 90 min dwell time, listed as Aged Sonicated CaSt #2): 64%
- Average Percent Change ([1]; 0.02 g CaSt, Sonicated, Immediate Mixing): 74%
- EU After ([1]; 0.02 g CaSt, Sonicated, Immediate Mixing, 15 minutes, EU Before 36,100, listed as Sonicated CaSt #1): 8,960 EU
- EU After ([1]; 0.02 g CaSt, Sonicated, Immediate Mixing, 15 minutes, EU Before 36,100, listed as Sonicated CaSt #2): 10,240 EU
- Percent Endotoxin Removed ([1]; 0.02 g CaSt, Sonicated, Immediate Mixing, listed as Sonicated CaSt #1): 75%
- Percent Endotoxin Removed ([1]; 0.02 g CaSt, Sonicated, Immediate Mixing, listed as Sonicated CaSt #2): 72%
- Average Percent Change ([1]; 0.02 g CaSt, Vortexed, 5 Day dwell time): 64%
- EU After ([1]; 0.02 g CaSt, Vortexed, 5 Day dwell time, 15 minutes, EU Before 37,800, listed as Aged Vortexed CaSt #3): 15,120 EU
- EU After ([1]; 0.02 g CaSt, Vortexed, 5 Day dwell time, 15 minutes, EU Before 37,800, listed as Aged Vortexed CaSt #4): 12,160 EU
- Percent Endotoxin Removed ([1]; 0.02 g CaSt, Vortexed, 5 Day dwell time, listed as Aged Vortexed CaSt #3): 60%
- Percent Endotoxin Removed ([1]; 0.02 g CaSt, Vortexed, 5 Day dwell time, listed as Aged Vortexed CaSt #4): 68%
- Average Percent Change ([1]; 0.02 g CaSt, Vortexed, 90 min dwell time): 43%
- EU After ([1]; 0.02 g CaSt, Vortexed, 90 min dwell time, 15 minutes, EU Before 36,100, listed as Aged Vortexed CaSt #1): 22,400 EU
- EU After ([1]; 0.02 g CaSt, Vortexed, 90 min dwell time, 15 minutes, EU Before 36,100, listed as Aged Vortexed CaSt #2): 19280 EU
- Percent Endotoxin Removed ([1]; 0.02 g CaSt, Vortexed, 90 min dwell time, listed as Aged Vortexed CaSt #1): 38%
- Percent Endotoxin Removed ([1]; 0.02 g CaSt, Vortexed, 90 min dwell time, listed as Aged Vortexed CaSt #2): 47%
- Average Percent Change ([1]; 0.02 g CaSt, Vortexed, Immediate Mixing): 32%
- EU After ([1]; 0.02 g CaSt, Vortexed, Immediate Mixing, 15 minutes, EU Before 36,100, listed as Aged Vortexed CaSt #1): 29,200 EU
- EU After ([1]; 0.02 g CaSt, Vortexed, Immediate Mixing, 15 minutes, EU Before 36,100, listed as Aged Vortexed CaSt #2): 20,480 EU
- Percent Endotoxin Removed ([1]; 0.02 g CaSt, Vortexed, Immediate Mixing, listed as Aged Vortexed CaSt #1): 20%
- Percent Endotoxin Removed ([1]; 0.02 g CaSt, Vortexed, Immediate Mixing, listed as Aged Vortexed CaSt #2): 43%
- EU After ([1]; 0.04 g CaSt, Sonicated, Immediate Mixing with 10 mL SRW, 15 minutes, EU Before 36,100, listed as Sonicated CaSt #1): 5,320 EU
- EU After ([1]; 0.04 g CaSt, Sonicated, Immediate Mixing with 10 mL SRW, 15 minutes, EU Before 36,100, listed as Sonicated CaSt #2): 5,800 EU
- Average Percent Change ([1]; 0.04 g CaSt, Sonicated, Immediate Mixing, 15 minutes): 85%
- Percent Endotoxin Removed ([1]; 0.04 g CaSt, Sonicated, Immediate Mixing, 15 minutes, listed as Sonicated CaSt #1): 85%
- Percent Endotoxin Removed ([1]; 0.04 g CaSt, Sonicated, Immediate Mixing, 15 minutes, listed as Sonicated CaSt #2): 84%
- Average Percent Change ([1]; 0.04 g CaSt, Sonicated, Mixing after 1 Month dwell time): 50%
- EU After ([1]; 0.04 g CaSt, Sonicated, Mixing after 1 Month dwell time, 15 minutes, EU Before 14650, listed as Aged Sonicated CaSt #1): 7440 EU
- EU After ([1]; 0.04 g CaSt, Sonicated, Mixing after 1 Month dwell time, 15 minutes, EU Before 14650, listed as Aged Sonicated CaSt #2): 7240 EU
- Percent Endotoxin Removed ([1]; 0.04 g CaSt, Sonicated, Mixing after 1 Month dwell time, listed as Aged Sonicated CaSt #1): 49.2%
- Percent Endotoxin Removed ([1]; 0.04 g CaSt, Sonicated, Mixing after 1 Month dwell time, listed as Aged Sonicated CaSt #2): 50.6%
- Average Percent Change ([1]; 0.04 g CaSt, Sonicated, Mixing after 5 Days dwell time): 85%
- EU After ([1]; 0.04 g CaSt, Sonicated, Mixing after 5 Days dwell time, 15 minutes, EU Before 37,800, listed as Aged Sonicated CaSt #3): 5,040 EU
- EU After ([1]; 0.04 g CaSt, Sonicated, Mixing after 5 Days dwell time, 15 minutes, EU Before 37,800, listed as Aged Sonicated CaSt #4): 6,560 EU
- Percent Endotoxin Removed ([1]; 0.04 g CaSt, Sonicated, Mixing after 5 Days dwell time, listed as Aged Sonicated CaSt #3): 87%
- Percent Endotoxin Removed ([1]; 0.04 g CaSt, Sonicated, Mixing after 5 Days dwell time, listed as Aged Sonicated CaSt #4): 83%
- Average Percent Change ([1]; 0.04 g CaSt, Sonicated, Mixing after 90 min dwell time): 81%
- EU After ([1]; 0.04 g CaSt, Sonicated, Mixing after 90 min dwell time, 15 minutes, EU Before 36,100, listed as Aged Sonicated CaSt #1): 6168 EU
- EU After ([1]; 0.04 g CaSt, Sonicated, Mixing after 90 min dwell time, 15 minutes, EU Before 36,100, listed as Aged Sonicated CaSt #2): 8,000 EU
- Percent Endotoxin Removed ([1]; 0.04 g CaSt, Sonicated, Mixing after 90 min dwell time, listed as Aged Sonicated CaSt #1): 83%
- Percent Endotoxin Removed ([1]; 0.04 g CaSt, Sonicated, Mixing after 90 min dwell time, listed as Aged Sonicated CaSt #2): 78%
- Average Percent Change ([1]; 0.04 g CaSt, Vortexed, Immediate Mixing): 44%
- EU After ([1]; 0.04 g CaSt, Vortexed, Immediate Mixing, 15 minutes, EU Before 36,100, listed as Aged Vortexed CaSt #1): 19,840 EU
- EU After ([1]; 0.04 g CaSt, Vortexed, Immediate Mixing, 15 minutes, EU Before 36,100, listed as Aged Vortexed CaSt #2): 20480 EU
- Percent Endotoxin Removed ([1]; 0.04 g CaSt, Vortexed, Immediate Mixing, listed as Aged Vortexed CaSt #1): 45%
- Percent Endotoxin Removed ([1]; 0.04 g CaSt, Vortexed, Immediate Mixing, listed as Aged Vortexed CaSt #2): 43%
- Average Percent Change ([1]; 0.04 g CaSt, Vortexed, Mixing after 5 Days dwell time): 75%
- EU After ([1]; 0.04 g CaSt, Vortexed, Mixing after 5 Days dwell time, 15 minutes, EU Before 37,800, listed as Aged Vortexed CaSt #3): 9,080 EU
- EU After ([1]; 0.04 g CaSt, Vortexed, Mixing after 5 Days dwell time, 15 minutes, EU Before 37,800, listed as Aged Vortexed CaSt #4): 9,760 EU
- Percent Endotoxin Removed ([1]; 0.04 g CaSt, Vortexed, Mixing after 5 Days dwell time, listed as Aged Vortexed CaSt #3): 76%
- Percent Endotoxin Removed ([1]; 0.04 g CaSt, Vortexed, Mixing after 5 Days dwell time, listed as Aged Vortexed CaSt #4): 74%
- Average Percent Change ([1]; 0.04 g CaSt, Vortexed, Mixing after 90 min dwell time): 54%
- EU After ([1]; 0.04 g CaSt, Vortexed, Mixing after 90 min dwell time, 15 minutes, EU Before 36,100, listed as Aged Vortexed CaSt #1): 17,120 EU
- EU After ([1]; 0.04 g CaSt, Vortexed, Mixing after 90 min dwell time, 15 minutes, EU Before 36,100, listed as Aged Vortexed CaSt #2): 16,460 EU
- Percent Endotoxin Removed ([1]; 0.04 g CaSt, Vortexed, Mixing after 90 min dwell time, listed as Aged Vortexed CaSt #1): 53%
- Percent Endotoxin Removed ([1]; 0.04 g CaSt, Vortexed, Mixing after 90 min dwell time, listed as Aged Vortexed CaSt #2): 54%
- Endotoxin Detected (EU) [2]: 23.4 EU and 21.78 EU and 25.62 EU
